# Marks after values point to notes of the source that are not given here.
# Key:
# Sprague-Dawley rats = test: Carrageenan-induced paw edema model (anti-inflammatory activity); assay type: in vivo; settings: ip
# Procedure: Anti-inflammatory activity was studied in Sprague-Dawley rats (3 male and 3 female animals per group) by using the common carrageenan-induced paw edema model. The investigated compounds in 1% starch mucilage were intraperitoneally administered at the corresponding dose to a treated group of rodents 30 min before the injection of 0.1 mL of freshly prepared 1% carrageenan (λ-carrageenan, type IV; Sigma Aldrich, an affiliate of Merck KGaA, Darmstadt, Germany) solution in the right hind paw plantar surface. The negative control group was treated with 1% starch mucilage solution only. Diclofenac sodium (10 mg/kg in 1% starch mucilage solution) was used as a reference drug. Paw volumes were measured oncometrically with water plethysmometer (TSE Volume Meter, Bad Homburg, Germany) before carrageenan administration (“zero time”) and at 1st, 3rd, 5th and 24th h after its injection. An anti-inflammatory activity of the sample at a certain time point was calculated in two steps. First, the percentage of an edema increment (i.e., relative volume change for the inflamed paw vs. “zero time” value) both in the negative control group (Pc) and in the treated group (Ptr) were calculated for this time point for each animal. The difference between treated and control group was considered significant at p < 0.05. Then, for such cases, swelling inhibition was calculated according to the formula: 100% (Pc − Ptr)/Pc and considered as a measure of anti-inflammatory activity of the sample.
# ratTRPA1 (rTRPA1) = target: T1, ratTRPA1 (rTRPA1) (Rattus norvegicus, UniProt Q6RI86); test: TRPA1 calcium imaging in CHO cells (AITC activation); assay type: cell-based; settings: CHO cells expressing TRPA1, Fluo-4, AITC 160 μM
# T1 construct: expressed in transfected cells
# T1 sequence (Q6RI86 whole entry): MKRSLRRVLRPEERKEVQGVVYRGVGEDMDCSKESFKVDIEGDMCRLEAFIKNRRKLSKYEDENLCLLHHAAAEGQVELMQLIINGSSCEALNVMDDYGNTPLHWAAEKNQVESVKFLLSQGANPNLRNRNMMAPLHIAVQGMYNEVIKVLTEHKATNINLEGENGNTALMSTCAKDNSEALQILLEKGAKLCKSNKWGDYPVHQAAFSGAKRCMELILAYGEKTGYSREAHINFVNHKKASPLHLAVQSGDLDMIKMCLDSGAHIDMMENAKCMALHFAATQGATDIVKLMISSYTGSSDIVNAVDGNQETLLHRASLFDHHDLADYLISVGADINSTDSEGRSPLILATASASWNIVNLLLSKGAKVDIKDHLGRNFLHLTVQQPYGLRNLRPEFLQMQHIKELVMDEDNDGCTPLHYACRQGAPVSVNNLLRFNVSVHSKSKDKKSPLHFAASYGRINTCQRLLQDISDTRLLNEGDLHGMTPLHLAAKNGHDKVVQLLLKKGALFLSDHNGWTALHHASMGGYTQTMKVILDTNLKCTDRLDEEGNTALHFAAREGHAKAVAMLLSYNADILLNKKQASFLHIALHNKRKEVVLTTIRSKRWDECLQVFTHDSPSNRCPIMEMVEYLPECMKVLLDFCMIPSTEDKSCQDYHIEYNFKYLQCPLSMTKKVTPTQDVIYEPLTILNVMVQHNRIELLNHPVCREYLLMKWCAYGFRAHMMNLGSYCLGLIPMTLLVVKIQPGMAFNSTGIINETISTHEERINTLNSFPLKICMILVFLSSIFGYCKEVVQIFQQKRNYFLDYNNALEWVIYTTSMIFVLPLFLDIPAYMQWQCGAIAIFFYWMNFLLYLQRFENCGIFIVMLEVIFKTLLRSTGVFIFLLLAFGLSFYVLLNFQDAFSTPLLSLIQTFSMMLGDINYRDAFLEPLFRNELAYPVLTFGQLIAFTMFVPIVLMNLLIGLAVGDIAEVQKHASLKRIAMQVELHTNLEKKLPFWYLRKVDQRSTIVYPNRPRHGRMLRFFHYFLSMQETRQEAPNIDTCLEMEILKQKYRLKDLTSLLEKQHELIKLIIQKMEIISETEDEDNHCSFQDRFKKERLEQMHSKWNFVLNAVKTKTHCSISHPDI
# Procedure: TRPA1 is known to be responsible for inflammatory and neuropathic pain appearance; therefore, it can be considered as a potential biological target for the analgesic action of the studied pyrazolones. Therefore, we studied the effect of pyrazolone 6b, showing the maximum analgesic effect in the hot plate test at 1 h on the activation of the TRPA1 ion channel by allyl isothiocyanate (AITC). The cell line CHO (Chinese hamster ovary cell) stably expressing the TRPA1 channel was used for measurement. Activation by a specific agonist was measured by fluorescence spectroscopy using Fluo-4 dye by changing the level of intracellular calcium.
# Testing for receptors ratTRPA1 (rTRPA1) and ratTRPV1 (rTRPV1), stably expressed in CHO cells, was carried out using the calcium imaging method as described in [123, 124]. Fluorescence was performed using NOVOstar (BMG LABTECH, Ortenberg, Germany). The tested substances in 26% DMSO solution or 26% DMSO solution alone (negative control) (5 μL) were added to the cells loaded with the cytoplasmic calcium indicator Fluo-4AM using Fluo-4 Direct™ Calcium Assay Kit (Thermo Fisher Scientific Inc., Waltham, MA, USA) (60 μL) and incubated 5–10 min. Final DMSO concentration was 2%. Changes in cell fluorescence (λex = 485 nm, λem = 520 nm) were monitored at 25 °C before and after the addition of relevant agonist. […]
smiles,measurement,setting,value
"Cc1ccc(N/N=C2\C(=O)N(c3ccccc3)N=C2C(F)(F)F)cc1 [5f, (4Z)-4-[2-(4-Methylphenyl)hydrazinylidene]-2-phenyl-5-(trifluoromethyl)-2,4-dihydro-3H-pyrazol-3-one]","Inhibition of Paw Edema Development Comparing to Control, after 5 h","Sprague-Dawley rats; dose 15 mg/kg, n.a. = inactive",30.9 * %
"CS(=O)(=O)c1ccc(N/N=C2\C(=O)N(c3ccccc3)N=C2C(F)(F)F)cc1 [5m, (4Z)-4-(2-[4-(Methylsulfonyl)phenyl]hydrazinylidene)-2-phenyl-5-(trifluoromethyl)-2,4-dihydro-3H-pyrazol-3-one]","Inhibition of Paw Edema Development Comparing to Control, after 1 h",Sprague-Dawley rats; dose 25 mg/kg,49.0 ** %
same,"Inhibition of Paw Edema Development Comparing to Control, after 3 h",Sprague-Dawley rats; dose 25 mg/kg,44.3 * %
same,"Inhibition of Paw Edema Development Comparing to Control, after 5 h",Sprague-Dawley rats; dose 25 mg/kg,35.3 * %
"Cc1ccc(N/N=C2\C(=O)N(c3ccccc3)N=C2C(F)(F)C(F)(F)F)cc1 [6b, (4Z)-4-[2-(4-Methylphenyl)hydrazinylidene]-5-(pentafluoroethyl)-2-phenyl-2,4-dihydro-3H-pyrazol-3-one]",effect on AITC-induced TRPA1 channel activation,ratTRPA1 (rTRPA1),no significant effect

# Reference: article PMC9821843, “Powerful Potential of Polyfluoroalkyl-Containing 4-Arylhydrazinylidenepyrazol-3-ones for Pharmaceuticals” (Molecules, 2022)
